Key:
[1] = tested on: MDA-MB-231 and MDA-MB-468 cells; test: MTT viability / cytotoxicity; format: cell-based
[2] = tested on: MDA-MB-231 orthotopic tumor; test: Orthotopic MDA-MB-231 tumor model, 15 mg/kg gavage; format: in vivo, mice
Description: Animals used for this study were approved by and conducted according to the guidelines of the University of Pittsburgh IACUC. MDA-MB-231 cells (0.5×106) were injected into the mammary fat pad (left 4th gland) of 6-wk-old female nude mice in a volume of 20 μL sterile saline. When tumors reached an average volume of 100 mm^3, mice were treated with OA+vehicle (n=8), OA-NO2+vehicle (n=7), OA+talazoparib (0.3 mg/kg) (n=10) or OA-NO2 (15 mg/kg)+talazoparib (n=11). Tumor volume was measured by caliper over time in P-values: *<0.01, ***<0.001, ****<0.0001. The surgical procedure has been previously described.
Whether NO2-OA could also enhance TNBC DNA damage in vivo was also assessed. […] (FIG. 1B). […] This response became statistically significant after Grubbs outlier detection and elimination of OA treated mouse #2. The orthotopic tumor in OA mouse #2 was the largest tumor in the study, with necrosis potentially causing enhanced γH2AX levels.

[3] = tested on: MDA-MB-231 cells; test: Cell cycle analysis with propidium iodide; format: cell-based; settings: 5 μM NO2-OA versus DMSO
Description: Samples were analyzed at the Flow Cytometry Core at MWRI utilizing a BD LSRII (BD).

[4] = biological target: T1, RAD51-ABL complex (Homo sapiens, UniProt Q06609); test: FLAG-RAD51/ABL immunoprecipitation in 293T cells; format: cell-based; settings: 0 to 5 μM, 1 h
T1 construct: expressed in transfected cells; host or cells: HEK 293T
Description: Cell lysates and immunoprecipitation were prepared. For immunoprecipitation analysis, one million HEK 293T cells were transiently transfected with Fugene 6 (Promega) and 2 μg pQCXIP (EV) or FLAG-RAD51 pQCXIP plasmids and precipitated with Anti-FLAG M2 Affinity Gel (Sigma).
Cys319 is located in the RAD51 C-terminus within one of the two ABL-SH3 binding domains (amino acids 283-286 and 318-321). […] ABL regulates RAD51 activity via sequential phosphorylation of RAD51 Tyr54 and then Tyr315.

[5] = tested on: MCF-10A cells; test: FACS cell cycle analysis; format: cell-based; settings: 5 μM, 24 hr
Description: (§1) Adherent and nonadherent cells were collected, centrifuged at 2000×rpm for 10 min, washed with ice-cold phosphate-buffered saline, fixed with cold 70% ethanol at 4° C. for 30 mins, and stained with 50 μg/mL propidium iodide (Sigma-Aldrich). FACS analysis was performed at the University of Pittsburgh Department of Immunology Unified Flow Core Facility. Three individual experiments were done, and statistical comparisons among phases (G0/G1, S, and G2/M) were determined by one-way analysis of variance followed by Tukey post-test.

[6] = tested on: MDA-MB-231 and MDA-MB-468 cells; test: FACS cell cycle analysis; format: cell-based; settings: 5 μM, 24 hr
Description: as §1

[7] = tested on: MDA-MB-231 and MDA-MB-468 cells; test: Boyden chamber cell migration; format: cell-based; settings: 5 μM
Description: MDA-MB-231 and MDA-MB-468 cells were subjected to cell migration analysis in Boyden chambers. The bottom of a 12-well membrane filter (BD Biosciences) was coated with 10 μg/mL fibronectin for 12 hr before each experiment. […] Cells were trypsinized and washed with migration media (DMEM containing 0.1% fatty acid-free BSA) to remove serum. Cells at a density of 10^5/well were then placed in the upper chamber with migration media containing the same pretreatment conditions. The cells were allowed to migrate towards the 5% FBS chemoattractant for 5 hr. Non-migrated cells from the top surface were removed with cotton swabs. Migrated cells were fixed with 4% paraformaldehyde (Electron Microscopy Sciences), then stained with 0.5% crystal violet (Sigma-Aldrich) for 15 min. Migrated cell density on the filters was observed by microscopy. The crystal violet on migrated cells was de-stained with 10% acetic acid, and the absorbance in individual filters was determined at […] nm. Images are representative of three individual experiments, and statistical comparison among treatments was determined by one-way analysis of variance followed by Tukey post-test.

[8] = tested on: IKKβ; test: TNFα-induced IKKβ phosphorylation, IκBα phosphorylation and degradation; format: cell-based
Description: All studies used two TNBC cell lines, MDA-MB-231 and MDA-MB-468. […] For IκBα degradation, cells were treated as described above and stimulated with 20 ng/mL TNFα for 10 min.
(§2) Western blotting was performed. 20-60 μg of total lysates per lane were loaded on 7%, 10%, or 12% SDS-PAGE and transferred onto nitrocellulose or polyvinylidene difluoride membranes (Bio-Rad). The membranes were probed with primary antibodies against caspase-3, multi-drug resistance protein-1 (MRP1), poly [ADP ribose] polymerase-1 (PARP-1), ubiquitin, RelA; cyclin D1, p21, caspase-9, MRP4, IKKβ, pIKKβ, IκBα, or pIκBα (Cell Signaling); caspase-8 (R&D Systems). Samples were normalized to β-actin (Sigma-Aldrich) or GAPDH (Trevigen).

[9] = biological target: T2, RelA (Homo sapiens, UniProt Q04206); test: Biotinylated NO2-FA protein alkylation pull-down and proteomics; format: binding; settings: recombinant RelA protein
T2 construct: endogenous in cells; host or cells: MDA-MB-231, MDA-MB-468
Description: After 2 hr cells were harvested in lysis buffer containing 1% Triton X, 10% glycerol, 150 mM NaCl, 10 mM HEPES, 1 mM EDTA, 1 mM EGTA, and supplemented with a mixture of protease and phosphatase inhibitors (Roche Applied Science). Total cell lysates (0.5-1 mg) were mixed and incubated with streptavidin agarose beads (Sigma-Aldrich) at 4° C., overnight. Beads were washed three times using lysis buffer. After SDS-PAGE, immunoblotting was performed using anti-RelA mouse monoclonal antibody (Santa Cruz Biotechnology) or anti-IKKβ rabbit polyclonal antibody (Cell Signaling). Proteomics analysis for the alkylation of RelA by NO2-OA was also conducted using recombinant RelA protein and LC-MS/MS analysis.

[10] = tested on: RelA in MCF-10A cells; test: RelA protein level; format: cell-based; settings: 5 μM, 24 hr
Description: as §2

[11] = intravenous and oral formulations; cited from earlier work

T1 sequence (Q06609 whole entry, one chain of several): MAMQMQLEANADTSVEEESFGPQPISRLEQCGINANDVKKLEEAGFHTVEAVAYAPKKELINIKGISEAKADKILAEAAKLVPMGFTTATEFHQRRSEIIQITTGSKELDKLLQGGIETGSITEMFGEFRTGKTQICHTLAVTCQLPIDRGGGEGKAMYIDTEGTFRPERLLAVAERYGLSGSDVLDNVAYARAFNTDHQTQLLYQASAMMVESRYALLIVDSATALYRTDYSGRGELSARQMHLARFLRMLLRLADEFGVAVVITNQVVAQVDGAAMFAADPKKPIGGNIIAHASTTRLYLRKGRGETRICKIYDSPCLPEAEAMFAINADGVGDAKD
T2 sequence (Q04206 whole entry): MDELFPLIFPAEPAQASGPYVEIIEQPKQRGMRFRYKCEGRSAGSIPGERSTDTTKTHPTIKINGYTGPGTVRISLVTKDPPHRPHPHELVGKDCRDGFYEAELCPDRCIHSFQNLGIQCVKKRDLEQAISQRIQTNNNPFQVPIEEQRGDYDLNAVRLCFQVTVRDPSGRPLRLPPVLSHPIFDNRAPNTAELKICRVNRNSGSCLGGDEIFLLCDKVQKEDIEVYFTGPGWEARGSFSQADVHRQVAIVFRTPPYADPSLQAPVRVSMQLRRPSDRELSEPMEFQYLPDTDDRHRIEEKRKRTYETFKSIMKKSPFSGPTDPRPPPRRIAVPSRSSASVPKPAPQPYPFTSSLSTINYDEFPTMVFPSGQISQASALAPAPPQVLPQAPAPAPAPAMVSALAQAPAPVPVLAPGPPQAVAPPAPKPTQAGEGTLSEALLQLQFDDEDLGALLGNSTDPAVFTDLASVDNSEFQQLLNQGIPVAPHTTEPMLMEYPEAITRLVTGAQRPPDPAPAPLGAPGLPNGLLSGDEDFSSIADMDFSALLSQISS

CCCCCCCCC(=CCCCCCCCC(=O)O)[N+](=O)[O-] [NO2-OA, 10-nitro-octadec-9-enoic acid]
cell viability (MTT) [1]: significantly reduced the viability
cytotoxicity ([1]; 5 μM, up to 24 hr, any cell line): No cytotoxicity was detectable
tumor γH2AX level by immunoblot ([2]; 15 mg/kg by gavage for 4 wk, versus OA): higher levels of γH2AX
tumor growth rate ([2]; 15 mg/kg by gavage for 4 wk, versus OA treated controls): significantly decreased tumor growth rates
tumor reduction / tumor volume in combination with talazoparib ([2]; NO2-OA 15 mg/kg + talazoparib 0.3 mg/kg versus either alone): significant greater tumor reduction compared to talazoparib or NO2-OA alone
cell cycle changes [3]: no significant changes to the cell cycle occurred
ABL bound to RAD51 [4]: decreased the amount of ABL bound to RAD51
RAD51 Tyr315 phosphorylation [4]: inhibited
cell cycle phase populations (G0/G1, S, G2/M) [5]: not affected
cell cycle phase distribution [6]: significantly increased the percentage of cells at G2/M phase
basal, non-stimulated migration [7]: modestly inhibited
TNFα-induced cell migration ([7]; TNFα 20 ng/mL): significantly inhibited
TNFα-induced IKKβ phosphorylation ([8]; NO2-OA 5 μM or BAY11-7082 10 μM 2 hr, TNFα 20 ng/mL 5 min): diminished
degradation of IκBα following TNFα stimulation ([8]; TNFα 20 ng/mL, 10 min): inhibited the degradation of IκBβ
IκBα phosphorylation ([8]; with proteasome inhibitor MG-132 10 μM): decreased IκBβ phosphorylation
RelA Cys105 alkylation (LC-MS/MS proteomics) [9]: alkylated
RelA protein levels [10]: not altered
clinical safety [11]: safe
